Drawing on paper PMC8356643 (2019), this text covers Ka, ΔT and binding for one compound.

Assay [1] has as its system VEGF (DNA, G4) GGGAGGGTTGGGGTGGG
The experiment in a line: UV-vis titration. The settings on record: 5 mM K+, 95 mM Li+; 10 mM lithium cacodylate 7.2, 95 mM LiCl, 5 mM KCl; parallel dimer.

The test system of assay [2] is THM (DNA, G4) GGGTTGGGTTGGGTTGGG
The assay is described as follows: fluorescence titration. The following applies: 5 mM K+, 95 mM Li+; 10 mM lithium cacodylate 7.2, 95 mM LiCl, 5 mM KCl.

Assay [3] shares this test system. The assay is described as follows: CD melting. The settings on record: 5 mM K+; 2 eq NMM.
Assay [4] relates to cMyc (DNA, G4) TGAGGGTGGGTAGGGTGGGTAA
The experiment in a line: fluorescence titration. The settings on record: 100 mM K+; 6 mM Na2HPO4, 2 mM NaH2PO4 7.1, 1 mM Na2EDTA, 100 mM KCl.

For assay [5], the system named is THM (DNA, G4) GGGTTGGGTTGGGTTGGG
The assay is described as follows: UV-vis titration. The following applies: 5 mM K+, 95 mM Li+; 10 mM lithium cacodylate 7.2, 95 mM LiCl, 5 mM KCl.

For assay [6] the test system is unchanged. The experiment in a line: ITC. The following applies: 5 mM K+, 95 mM Li+; 10 mM lithium cacodylate 7.2, 95 mM LiCl, 5 mM KCl.
The test system of assay [7] is cMyc (DNA, G4) TGAGGGTGGGTAGGGTGGGTAA
The assay is described as follows: UV-vis titration. The settings on record: 100 mM K+; 6 mM Na2HPO4, 2 mM NaH2PO4 7.1, 1 mM Na2EDTA, 100 mM KCl.

The test system of assay [8] is THM (DNA, G4) GGGTTGGGTTGGGTTGGG
The assay is described as follows: X-ray crystallography. The settings on record: K+; 2.4 Å; end-stacking to the 3' G-tetrad.

The test system of assay [9] is G4TERT (DNA, G4) AGGGGAGGGGCTGGGAGGGC
The assay is described as follows: UV-vis titration. The settings on record: 5 mM K+, 95 mM Li+; 10 mM lithium cacodylate 7.2, 95 mM LiCl, 5 mM KCl; parallel dimer.

As for `CCc1c(C)c2cc3nc(cc4nc(cc5c(CC)c(C)c(cc1[nH]2)n5C)C(C)=C4CCC(=O)O)C(CCC(=O)O)=C3C`, the Ka is listed as 10. ± 2 × 10^6 M^-1 in assay [1]; 50 ± 20 × 10^6 M^-1 in [2]; 7.4 ± 2 × 10^6 M^-1 in assay [4]; 30 ± 20 × 10^6 M^-1 in assay [5]; 70 ± 20 × 10^6 M^-1 in assay [6]; 19 ± 6 × 10^6 M^-1 in assay [7]. Moreover, the Ka in [9] is recorded as 1.7 ± 0.7 × 10^6 M^-1. Besides, the ΔT in assay [3] came out at 23 ± 2 °C. For the same compound, in [8], the binding result was “yes”.
